In one data set the test system is SN12C. Put plainly: MTT cytotoxicity, SN12C. The settings on record: Homo sapiens, Renal, 72 hrs, read-out: LC50 (the source's name). The format is cell-based. The procedure:
(§1) The cytotoxicity of ZTP and ZTQ was analyzed by using human tumor cell lines. Human tumor cell lines were purchased from ATCC and NCI, and cultured in DMEM medium containing 10% FBS at 37° C. in 5% CO2 in an incubator. The cells grown to confluence were used for cytotoxicity analysis. The cells were digested with trypsin, washed with the culture medium, and then counted. 33 tumor cell lines were cultured. The cells were seeded at a density of 3000-6000 cells/well in a 96-well plate and incubated for 16-24 hrs. Then, various concentrations of ZTP or ZTQ dissolved in DMSO were added, and cultured for 72 hrs. The drug-treated cells and control cells were analyzed by MTT.

A further data set has as its system HT29. Put plainly: MTT cytotoxicity, HT29. It counts as cell-based. The settings on record: Homo sapiens, HT-29, HT29, Colonic, 72 hrs, read-out: LC50 (the source's name). Here is the method: as §1
The subject of a further data set is Widr. Put plainly: MTT cytotoxicity, Widr. It counts as cell-based. The settings on record: Homo sapiens, Colonic, 72 hrs, read-out: LC50 (the source's name). The procedure:
as §1

The next data set has as its system D145. In words: MTT cytotoxicity, D145. The settings on record: Homo sapiens, D145, Prostatic, 72 hrs, read-out: LC50 (the source's name). The format is cell-based. The procedure:
as §1

A further data set deals with SGC-7901. In words: MTT cytotoxicity, SGC-7901. It counts as cell-based. The settings on record: Homo sapiens, SGC-7901, Gastric, 72 hrs, read-out: LC50 (the source's name). The procedure:
as §1

Another data set has as its system CCL-225. Put plainly: MTT cytotoxicity, CCL-225. It counts as cell-based. The conditions noted are these: Homo sapiens, CCL-225, Colonic, 72 hrs, read-out: LC50 (the source's name). The procedure:
as §1

The subject of another data set is G-361. In words: MTT cytotoxicity, G-361. The conditions noted are these: Homo sapiens, G-361, Skin (melanoma), 72 hrs, read-out: LC50 (the source's name). The format is cell-based. The procedure:
as §1

The subject of the next data set is VEGFR protein kinase. Put plainly: Inhibition of VEGFR protein kinase activity (phosphorylated VEGFR, western blotting) in HUMEC cells. It counts as cell-based, human. The conditions noted are these: 1 hour treatment, phosphorylated VEGFR level, read-out: median inhibitory concentration (IC50) for inhibiting the activity of VEGFR protein kinase. An excerpt:
VEGFR is a vascular endothelial growth factor receptor regulating the growth, migration, and differentiation of vascular endothelial cells, and determining the start of angiogenesis of tumors. After being stimulated by vascular endothelial cell growth factors, VEGFR forms a dimer, activates its kinase, and makes themselves phosphorylated. The level of the activity of VEGFR protein kinase is detected according to the phosphorylated degree of VEGFR. In this test, we used human microvascular endothelial cells (HUMECs) to determine whether ZTP and ZTQ can inhibit the activity of VEGFR protein kinase. HUMEC cells were subjected to adherent growth in DMEM medium (GIBCO-BRL) containing 10% bovine calf serum at 37° C. in 5% CO2. The cells were treated with various concentrations of ZTP and ZTQ (0, 10 ng/ml, 100 ng/ml, 500 ng/ml, 1 μg/ml, and 10 μg/ml), and the cell proteins were collected 1 hour after treatment. The protein content was determined through Bradford method, and then the level of phosphorylated VEGFR was assayed through western blotting. Immunoblotting experiment: denatured polyacrylamide gel was used for separation of the proteins with a sample load of 60 μg of total proteins. The proteins were electro-transferred onto a PVDF membrane and blocked. […] The membrane was exposed to an X-ray film, and the results were analyzed by a gel imaging system. […]

A further data set concerns MCF-7. Put plainly: MTT cytotoxicity, MCF-7. It counts as cell-based. The settings on record: Homo sapiens, MCF7, MCF-7, Breast, 72 hrs, read-out: LC50 (the source's name). Here is the method:
as §1

Data set [1] deals with human lung cancer cells (NCI-H23). In words: Transplantation model of human lung cancer (NCI-H23) in nude mice. The settings on record: NCI-H23 subcutaneous in nude mice; oral daily 5 days/week, 3 weeks; ZTP 30 mg/kg, ZTQ 60 mg/kg; lower = stronger. The format is in vivo, nude mice (nu/nu). The procedure: T-cell deficient nude mice (nu/nu) of 6 weeks old were purchased from Charles River Laboratory, and housed and treated in a sterile environment following Institutional Animal Care & Use Committee Program. 48 mice were respectively subcutaneously inoculated on ribbed belly with 5×10^6 human liver cancer cells (HepG3B), human lung caner cells (NCI-H23), and human colon cancer cells (HCT-116) suspended in 0.2 ml HBSS/matrigel (50:50, V/V). When the tumor grew to have an average diameter of 7-8 mm and a volume of about 100-200 mm^3, 24 mice were picked up, and assigned to treatment groups (16 animals/2 groups), and a control group (8 animals). The 2 treatment groups were administered with the compounds ZTP and ZTQ dissolved in 15% Captsol respectively at a dose of 30 mg/kg and 60 mg/kg, and the control group only received an excipient (15% Captsol).
The same number of mice of each type was assigned to the control group and the treatment groups with the compounds ZTP and ZTQ respectively.
The dose schedule of the test compounds in the tumor transplanted nude mice was as follows: the compounds ZTP and ZTQ dissolved in 15% Captsol were daily orally administered as a 200 μl solution containing 0.75 mg of ZTP and 1.5 mg of ZTQ for 5 days/week over 3 consecutive weeks, followed by one-week break; and the control group was only administered with 200 μl of the placebo (15% Captsol) for 3 weeks, followed by 1 week of break. The two groups of animals were housed separately, and allowed to free access to food.
Evaluation of antitumor effect: the tumor size was measured every 3 or 4 days. The tumor volume was calculated using the equation below: […], in which a denotes the width (the shorter diameter), and b denotes the length (the longer diameter). Relative tumor volume (RTV) of each tumor refers to the ratio of the volume at a specified time to that at the beginning of the treatment. The average RTV for each treatment group was calculated. The antitumor activity was determined by calculating the tumor growth inhibition using a formula below. […]

In a further data set the test system is LoVo. In words: MTT cytotoxicity, LoVo. The format is cell-based. The settings on record: Homo sapiens, Colonic, 72 hrs, read-out: LC50 (the source's name). Here is the method: as §1
The test system of the next data set is MEF. Put plainly: MTT cytotoxicity, MEF normal mouse fibroblast. The conditions noted are these: cells still grow well at a concentration up to 30 μm. It counts as cell-based. The procedure:
[Worded in the source for another organism; this organism is reported under the same test.] as §1

The nature of data set [2]: MTT cytotoxicity, MEF normal mouse fibroblast. It counts as cell-based. The settings on record: MEF normal mouse fibroblasts; MEF, Normal mouse fibroblast; 72 hrs, MTT; read-out: LC50. Here is the method:
[Worded in the source for another organism; this organism is reported under the same test.] as §1

With `CNC(=O)c1cc(Sc2ccc(NC(=S)Nc3ccc(Cl)c(C(F)(F)F)c3)cc2)ccn1` [ZTQ, N-[4-chloro-3-(trifluoromethyl)phenyl]-[4-(N-methyl-formamide)(4-pyridylthio)phenyl]-thiourea], the CC50 in the data set on SN12C is 2200 nM; in the data set with HT29 it was 920 nM; in the data set on Widr, 810 nM; in the data set with D145, 1230 nM; with SGC-7901, 1030 nM; with CCL-225 it was 1430 nM. For the same molecule, the CC50 in the data set with G-361 stood at 1360 nM; in the data set with MCF-7, 1700 nM; in the data set on LoVo it was 1100 nM. Besides, in the data set with VEGFR protein kinase, the IC50 is 9 nM. Besides, the “TGI (T/C×100)” value in data set [1] was found to be 9.21%. Also, the “susceptibility of normal mouse fibroblasts (MEFs)” value in the data set on MEF was “insusceptible”. Further, the CC50 at 72 h in data set [2] is above 30000 nM.
Take `CNC(=O)c1cc(Oc2ccc(NC(=S)Nc3ccc(Cl)c(C(F)(F)F)c3)cc2)ccn1` [ZTP, N-[4-chloro-3-(trifluoromethyl)phenyl]-[4-(N-methyl-formamide)(4-pyridyloxy)phenyl]-thiourea]: the CC50 was found to be 3210 nM in the data set with SN12C; 1190 nM in the data set on HT29; 950 nM with Widr; 1590 nM in the data set on D145; 1310 nM in the data set with SGC-7901; 1980 nM in the data set on CCL-225. The results for the CC50 with G-361, with MCF-7 and in the data set on LoVo were 1910 nM, 2210 nM and 1310 nM, respectively. In the data set on VEGFR protein kinase, the IC50 was determined as 21 nM. The “TGI (T/C×100)” value in [1] is 10%. Moreover, the “susceptibility of normal mouse fibroblasts (MEFs)” value in the data set with MEF is “insusceptible”. Moreover, in data set [2], the CC50 at 72 h is above 30000 nM.

Source of the values: patent publication US20130225641A1, “ANTICANCER COMPOUNDS AND PREPARATION METHODS THEREOF” (priority 2010, published 2013).
